Measured values reported in BindingDB's records for doi:10.1021/jm8011905 (National Taiwan University, 2009).

Target: Genome polyprotein (Hepatitis C virus genotype 1b (isolate Taiwan), UniProt P29846)
Assay: Fluorescence Resonant Energy Transfer (FRET) Helicase Assay
Settings: pH 7; 22 °C
Experimental: The enzyme was assayed the DNA helicase activity by using DNA substrate (annealed BHQ1-labeled release strand and FITC-labeled template strand) in the presence of test compound. The substrate was monitored by the fluorescence quenching of FITC. The assay mixture was added to a 384-well microplate and monitored continuously at an excitation of 485 nm and an emission of 518 nm using a Fluoroskan Ascent microplate fluorescence reader (LabSystems, VA). The original data were normalized by the formula of relative helicase activity (%). When the inhibition of helicase activity was more than 50% at a concentration of 100 uM, the IC50 values were determined by curve fitting using SigmaPlot2000 of logistic with three parameters.

Genome polyprotein, sequence (P29846 1027-1657 limits assumed): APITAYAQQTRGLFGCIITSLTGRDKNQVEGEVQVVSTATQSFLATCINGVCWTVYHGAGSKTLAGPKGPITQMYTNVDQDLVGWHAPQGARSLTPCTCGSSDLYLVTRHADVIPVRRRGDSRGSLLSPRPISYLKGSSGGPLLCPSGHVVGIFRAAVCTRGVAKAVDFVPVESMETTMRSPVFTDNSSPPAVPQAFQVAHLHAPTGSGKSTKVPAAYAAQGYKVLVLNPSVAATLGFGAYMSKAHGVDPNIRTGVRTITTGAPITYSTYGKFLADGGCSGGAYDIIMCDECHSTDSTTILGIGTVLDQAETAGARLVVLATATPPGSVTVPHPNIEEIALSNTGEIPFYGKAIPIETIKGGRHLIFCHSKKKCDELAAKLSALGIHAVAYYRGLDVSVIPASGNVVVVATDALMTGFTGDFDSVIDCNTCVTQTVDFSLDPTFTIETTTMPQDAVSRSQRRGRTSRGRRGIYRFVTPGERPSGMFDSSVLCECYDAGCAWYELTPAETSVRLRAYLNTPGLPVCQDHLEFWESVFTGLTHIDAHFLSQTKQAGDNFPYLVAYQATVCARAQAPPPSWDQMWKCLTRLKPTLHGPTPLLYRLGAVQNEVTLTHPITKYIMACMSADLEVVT

- IC50: 40 µM
Compound: O=S(=O)(O)c1ccc(Nc2ccc([C+](c3ccc(Nc4cccc(S(=O)(=O)O)c4)cc3)c3ccc(Nc4cccc(S(=O)(=O)O)c4)cc3)cc2)cc1 [BHT, 1]
